Tests used:
[1] = Righting reflex experiment on mice; conditions: both, ICR, mouse, in vivo; for MTD: intravenous; for LD50: iv
Description: (§1) LD5 (5% lethal dose): dose required to cause 5% of mice to die in a test.
(§2) If a normal animal was able to immediately turn its body to normal upright position after being pushed over or made lying on its back, such a reflex was determined as the righting reflex. Otherwise, loss of the righting reflex and the time of loss were recorded, and a reflex recovery time was recorded when the animal restored the righting reflex. The period from finishing of drug administration until loss of the righting reflex was recorded as the anesthesia induction time, and the period from loss of the righting reflex until recovery of the righting reflex was recorded as the anesthesia maintenance time.
(§3) TI (therapeutic index, i.e. LD50/ED50), SI (safety index, i.e. LD5/ED95).
(§4) MTD (maximum tolerated dose): the maximum dose able to cause 100% to loss the righting index without death.
(§5) Indicators such as median effective dose (ED50), median lethal dose (LD50), therapeutic index (TI, i.e. LD50/ED50), safety index (SI, i.e. LD5/ED95), anesthesia induction time, anesthesia maintenance time, and maximum tolerated dose (MTD) were used to evaluate the effect and safety of anesthesia. […] After adapting to the laboratory environment, laboratory animals were fasted for 12 hours. On the next day, administration was carried out at 10 mg/kg body weight. Upon intravenous injection, the time of loss of the righting reflex was recorded. The period from finishing of drug administration until loss of the righting reflex was recorded as the anesthesia induction time, and the period from loss of the righting reflex until recovery of the righting reflex was recorded as the anesthesia maintenance time. The anesthesia induction time and the anesthesia maintenance time were used to indicate how strong an anesthetic effect was. Meanwhile, the dose required to cause a 7-min anesthesia (HD7) was measured and used to evaluate relative efficacy.

ICR mice [2] = test: Righting reflex experiment on mice; conditions: for ED50: Mus musculus, iv; for Anesthesia induction time / Anesthesia maintenance time / HD7: mice; for Anesthesia induction time / Anesthesia maintenance time: intravenous injection; for Anesthesia induction time: end of administration until loss of righting reflex; for Anesthesia maintenance time: loss until recovery of righting reflex; for HD7: dose required to cause a 7-min anesthesia; for SI: safety index, LD5/ED95, mice; for TI: therapeutic index, LD50/ED50, mice
Description: as §1, §2, §3, §4, §5

[3] = Pharmacokinetic experiment on rats; assay type: in vivo, SD rats; conditions: male, Sprague-Dawley, rat, plasma; Intravenous Injection into Rats (1 mg/kg)
Description: 3 male SD rats, each weighing 180 to 240 g, were fasted overnight with water access. A 1 mL/kg solution of the compound was formulated with 10% DMA, 20% solutol HS-15 (30%, w/v) and 70% physiological saline. Blood was sampled before administration and 2 min, 4 min, 8 min, 12 min, 15 min, 30 min, 1 h, 1.5 h and 2 h after administration. Blood samples were centrifuged at 5500 rpm for 10 min, and plasma was collected and stored at −40° C. 10 μl rat plasma from each time point was added to a 200 μl acetonitrile solution containing an internal standard and mixed, followed by 1-min vortexing and 18-min centrifugation at 3700 rpm. Then 70 μl supernatant was mixed with 70 μl water, and 10 μl of the mixture was analyzed by LC-MS/MS. Major pharmacokinetic parameters were subjected to a non-compartment analysis with the software WinNonlin 6.3.

Beagle dogs = test: Haemodynamic effects in Beagle dogs; assay type: in vivo; conditions: for Dose required to produce the same anesthetic effect: Beagle dogs, intravenous emulsion for injection
Description: Data of various indicators such as electrocardiogram, blood pressure and body temperature of the animals were continuously collected from about 3.5 hours before administration until 6 hours after administration.

GABAA receptors = conditions: CHO/GABAA; for EC50: enhancement of muscimol-induced GABAA receptor current, whole-cell patch-clamp
Description: Various concentrations of test compounds and muscimol were added together to CHO/GABAA, and the current mediated by GABAA receptors was measured. Two measurements were performed for each concentration to obtain an average response current. The enhancement of the current mediated by GABAA receptors was calculated by the following equation: Enhancement (%)=100*(Test Compound−Control)/Control
The Control group is the peak current amplitude induced by muscimol, and the Test Compound group is the peak current amplitude co-induced by the test compounds and muscimol. The enhancement (%) was calculated for each concentration, and EC50 was calculated by normalization.

[4] = Pharmacokinetic analysis with prodrugs in rats; assay type: in vivo, SD rats; conditions: male, Sprague-Dawley, rat, plasma
Description: 3 male SD rats, each weighing 180 to 240 g, were fasted overnight with water access. After a single intravenous administration of a prodrug at 10 mg/kg to rats, the plasma concentrations of the prodrug and the active form were each measured by LC-MS/MS, and the pharmacokinetic parameters were analyzed.

[5] = Righting reflex experiment on mice with prodrugs; assay type: in vivo; conditions: both sexes, ICR, mouse, in vivo, mice; for MTD: intravenous, prodrugs; for LD50: intravenous injection, prodrugs in physiological saline
Description: (§6) After adapting to the laboratory environment, the SPF-grade ICR mice were fasted for 12 hours.

ICR mice [6] = test: Righting reflex experiment on mice with prodrugs; assay type: in vivo; conditions: for ED50: Mus musculus, prodrugs formulated with physiological saline, read-out: ED50; for ED50 / Anesthesia induction time / Anesthesia maintenance time: intravenous injection; for SI: safety index, LD5/ED95, mice; for TI: therapeutic index, LD50/ED50, mice
Description: as §6

[7] = Efficacy experiment on rats with prodrugs; assay type: in vivo; conditions: both sexes, Sprague-Dawley, rat, in vivo, intravenous, SD rats; for LD50: tail vein, non-linear fitting
Description: (§7) This experiment selected SD rats, each weighing 180 to 200 g. The rats were randomized, with 10 animals per group, half male and half female. […] The time of administration, time of loss of the righting reflex, time of recovery of the righting reflex, and time of walking were recorded. Adverse effects shown by the rats after administration were also recorded.
(§8) Time of loss of the righting reflex: the righting reflex is lost; a rat made lying on its back can maintain the lying for a period of 60 s;
(§9) Time of recovery of the righting reflex: the righting reflex ability is restored; a rat made lying on its back rights in less than 2 s;
(§10) Time of walking: spontaneous forwarding moving occurs, and muscle tension of the limbs recovers.
(§11) Using GraphPad Prism 5, ED50 and LD50 values were calculated from a non-linear fitting of number of anesthetic or dead animals resulting from various doses.

SD rats = test: Efficacy experiment on rats with prodrugs; assay type: in vivo; conditions: for ED50: Rattus norvegicus, non-linear fitting; for ED50 / Anesthesia induction time / Anesthesia maintenance time: SD rats, tail vein; for TI: therapeutic index, LD50/ED50, rats
Description: as §7, §8, §9, §10, §11

[8] = injection; cited from earlier work
[9] = Intravenous Injection into Rats (10 mg/kg), analyte: prodrug

CC(C)c1cccc([C@H](C)C2CC2)c1O [Compound 16, 2-[(1R)-1-cyclopropylethyl]-6-isopropyl-phenol]
MTD [1]: 6 mg/kg
LD50 [1]: 9.9 mg/kg
ED50 (ICR mice [2]): 1.5 mg/kg
Anesthesia induction time (ICR mice [2]): <15.0 s
Anesthesia maintenance time (ICR mice [2]): 631.9 s
HD7 (ICR mice [2]): 3.5 mg/kg
SI (ICR mice [2]): 4.1
TI (ICR mice [2]): 6.7
AUC(0-t) [3]: 168 ng·h/mL
clearance [3]: 105 mL/min/kg
half-life [3]: 30 min
Dose required to produce the same anesthetic effect (Beagle dogs): 2 mg/kg
Effect on the heart rate and blood pressure (Beagle dogs; conscious Beagle dogs, Compound 16 2 mg/kg vs propofol 10 mg/kg): smaller than that of propofol
Activity compared with propofol (GABAA receptors; patch clamp): lower ED50
Effect on the ion channels of GABAA receptors (GABAA receptors; patch clamp): activating effect
EC50 (GABAA receptors): 1.1 µM

CC[C@@H](C)c1cccc([C@@H](C)C2CC2)c1O [Compound 29, 2-[(1S)-1-cyclopropylethyl]-6-[(1R)-1-methylpropyl]phenol]
MTD [1]: 40 mg/kg
LD50 [1]: 65.4 mg/kg
ED50 (ICR mice [2]): 10.1 mg/kg
Anesthesia induction time (ICR mice [2]): <15.0 s
Anesthesia maintenance time (ICR mice [2]): 1149.5 s
SI (ICR mice [2]): 3.7
TI (ICR mice [2]): 6.4
AUC(0-t) [3]: 114 ng·h/mL
clearance [3]: 145 mL/min/kg
half-life [3]: 24 min

CC(C)c1cccc([C@H](C)C2CC2)c1OP(=O)(O)O [Compound 46, [[2-[(1R)-1-cyclopropylethyl]-6-isopropyl-phenoxy]-sodiooxy-phosphoryl]oxysodium]
AUC(0-t) [4, 9]: 22400 ng·h/mL
clearance [4, 9]: 6.1 mL/min/kg
half-life [4, 9]: 54 min
MTD [5]: 200 mg/kg
LD50 [5]: 225 mg/kg
ED50 (ICR mice [6]; mice): 72.6 mg/kg
Anesthesia induction time (ICR mice [6]; mice, prodrugs): 167.0 s
Anesthesia maintenance time (ICR mice [6]; mice, prodrugs): 2204.6 s
SI (ICR mice [6]; prodrugs): 2.4
TI (ICR mice [6]; prodrugs): 3.1

CC(C)c1cccc([C@H](C)C2CC2)c1OCOP(=O)([O-])[O-].[Na+].[Na+] [Compound 52]
AUC(0-t) [4, 9]: 15900 ng·h/mL
clearance [4, 9]: 10.5 mL/min/kg
half-life [4, 9]: 24 min
LD50 [5]: 86.2 mg/kg
ED50 (ICR mice [6]; mice): 20.4 mg/kg
Anesthesia induction time (ICR mice [6]; mice, prodrugs): 73.0 s
Anesthesia maintenance time (ICR mice [6]; mice, prodrugs): 1830.2 s
MTD (ICR mice [6]; mice, prodrugs): 60.0 mg/kg
SI (ICR mice [6]; prodrugs): 3.3
TI (ICR mice [6]; prodrugs): 4.2
MTD [7]: 30 mg/kg
LD50 [7]: 61.4 mg/kg
ED50 (SD rats): 12.5 to 15 mg/kg
Anesthesia induction time (SD rats): 92.8 s
Anesthesia maintenance time (SD rats): 1946.3 s

CC(C)c1cccc([C@H](C)C2CC2)c1OCOC(=O)[C@H](Cc1ccccc1)NC(=O)OC(C)(C)C [Compound 61, [2-[(1R)-1-cyclopropylethyl]-6-isopropyl-phenoxy]methyl(2S)-2-(tertbutoxycarbonylamino)-3-phenyl-propanoate]
MTD [5]: 40 mg/kg
LD50 [5]: 87.4 mg/kg
ED50 (ICR mice [6]; mice): 6.1 mg/kg
Anesthesia induction time (ICR mice [6]; mice, prodrugs): 17.5 s
Anesthesia maintenance time (ICR mice [6]; mice, prodrugs): 1109.2 s
ED50 and efficacy compared with propofol (ICR mice [6]; mice, prodrugs): smaller ED50 value and higher efficacy than propofol
SI (ICR mice [6]; prodrugs): 3.7
TI (ICR mice [6]; prodrugs): 14.4
MTD [7]: 40 mg/kg
LD50 [7]: 60.8 mg/kg
ED50 (SD rats): 6.5 mg/kg
Anesthesia induction time (SD rats): 0.0 s
Anesthesia maintenance time (SD rats): 1474.9 s
ED50 and efficacy compared with propofol (SD rats; rats, prodrugs): smaller ED50 and higher efficacy than propofol
SI (SD rats; safety index, LD5/ED95, rats): 6.3
TI (SD rats): 9.4

CC(C)c1cccc(C(C)C)c1O [Propofol, reference compound]
ED50 (ICR mice [2]): 11.7 mg/kg
Anesthesia induction time (ICR mice [2]): <15.0 s
Anesthesia maintenance time (ICR mice [2]): 652.5 s
HD7 (ICR mice [2]): 14.0 mg/kg
TI (ICR mice [2]): 2.7
AUC(0-t) [3]: 81.9 ng·h/mL
clearance [3]: 204 mL/min/kg
half-life [3]: 42 min
AUC(0-t) ([4]; iv, 10 mg/kg): 81.9 ng·h/mL
clearance ([4]; iv, 10 mg/kg): 204 mL/min/kg
half-life ([4]; iv, 10 mg/kg): 42 min
ED50 (ICR mice [6]; mice): 11.7 mg/kg
Anesthesia induction time (ICR mice [6]; mice, prodrugs): <15.0 s
Anesthesia maintenance time (ICR mice [6]; mice, prodrugs): 652.5 s
MTD (ICR mice [6]; mice, prodrugs): 20.0 mg/kg
TI (ICR mice [6]; prodrugs): 2.7
MTD [7]: 12.5 mg/kg
LD50 [7]: 19.1 mg/kg
ED50 (SD rats): 5.7 mg/kg
Anesthesia induction time (SD rats): 0.0 s
Anesthesia maintenance time (SD rats): 652.0 s
TI (SD rats): 3.4
Dose required to produce the same anesthetic effect (Beagle dogs): 10 mg/kg
Effect on the ion channels of GABAA receptors (GABAA receptors; patch clamp): activating effect
EC50 (GABAA receptors): 5.3 µM
Patients on injections feeling certain pain or discomfort [8]: approximately 70%
